The values that follow come from publication PMC7970697, “Inhibition and Induction by Poziotinib of Different Rat Cytochrome P450 Enzymes In Vivo and in an In Vitro Cocktail Method” (Frontiers in Pharmacology, 2021).

Data set [1] concerns cytochrome P450 (CYP) enzymes. On the set-up: method as in Dungo et al., 2013. The following applies: ref Dungo et al., 2013; cited from earlier work.
The next data set relates to cyp2b1. On the set-up: method as in Ma et al., 2015. Particulars: in rats; ref Ma et al., 2015; cited from earlier work.
Another data set relates to CYP2C9. Particulars: 2019, cited from earlier work.
The test system of another data set is CYP2D6. Particulars: cited from earlier work.
Data set [2] can be described thus: Pharmacokinetics of probe substrates in rats with or without poziotinib pre-treatment. Particulars: for Cmax / CL/F / Vd/F: n = 6; for half-life: t1/2z; for CL/F: CLz/F; for Vd/F: Vz/F. How it is done: Samples were analyzed by a UPLC-MS/MS system equipped with a triple quadrupole mass spectrometer (Waters Corp., Milford, MA, United States) and Acquity UPLC BEH C18 column (1.7 μm, 2.1 × 50 mm) at 40°C. The mobile phase consisted of acetonitrile (A) and 0.1% formic acid (B) with a linear gradient elution at 0.4 ml/min for 3 min.
Twelve male Sprague-Dawley rats (230 ± 20 g) were randomly divided into treated and control groups, with 6 in each group. […] The supernatant was mixed with 200 μL of acetonitrile and 20 μL of 0.5 μg/ml diazepam (IS), vortexed for 30 s, centrifuged at 13,000 rpm for 5 min, and the supernatant was injected into the UPLC-MS/MS system for analysis.
Pharmacokinetic parameters were calculated using DAS software (Version 3.2.8). SPSS software (version 16.0; SPSS Inc., Chicago, IL, United States) was used to analyze the significance of differences between the main pharmacokinetic parameters. p < 0.05 was considered statistically significant. GraphPad (version 8.0; GraphPad Software Inc., San Diego, CA, United States) was used to calculate IC50 and plot the plasma concentration-time curves and inhibition plots (type of inhibition, time- and concentration-dependence).

The mark [3] stands for this setting: male, Sprague-Dawley, rat, in vivo, po, 10 mg/kg.
Where [4] appears, read: male, Sprague-Dawley, rat, plasma, po, 10 mg/kg, Control group: oral probe cocktail only (10 mg/kg; tolbutamide 1 mg/kg), rats.
[5] abbreviates: male, Sprague-Dawley, rat, plasma, po, 10 mg/kg, Treated group: oral probe cocktail (10 mg/kg; tolbutamide 1 mg/kg) after 7 days oral poziotinib 5 mg/kg, rats.
Setting [6] is: rats, poziotinib 5 mg/kg 7 days vs probes only.
Where [7] appears, read: male, Sprague-Dawley, rat, in vivo, po.
Setting [8] is: male, Sprague-Dawley, rat, plasma, po, Control group: oral probe cocktail only (10 mg/kg; tolbutamide 1 mg/kg), rats.
The mark [9] stands for this setting: rats, poziotinib 5 mg/kg 7 days vs probes only (Discussion).

Regarding `CN(C)C/C=C/C(=O)Nc1cc2c(Nc3ccc(F)c(Cl)c3)ncnc2cc1O[C@H]1CCOC1` [Afatinib], the “inhibition or induction of CYP enzymes” value in data set [1] is “no inhibition or induction”.

Regarding `C#Cc1cccc(Nc2ncnc3cc(OCCOC)c(OCCOC)cc23)c1` [Erlotinib], in the data set with cyp2b1, the “effect on cyp2b1 activity” value is given as “may inhibit”. For the same compound, in the data set with CYP2C9 (in human, ref Hiraide et al.), the “effect on metabolism of warfarin, a CYP2C9 substrate” value is recorded as “inhibit warfarin metabolism”.

On to `COc1cc2ncnc(Nc3ccc(F)c(Cl)c3)c2cc1OCCCN1CCOCC1` [Gefitinib], for which the “effect on CYP2C9” value with CYP2C9 (ref Prommer, 2004, Hiraide et al.) is recorded as “inhibit”. In addition, the “effect on CYP2D6” value in the data set on CYP2D6 (ref Prommer, 2004, Hiraide et al., 2019) is “inhibit”.

Regarding `CCOc1ccc(NC(C)=O)cc1` [Phenacetin], the highest concentration (Cmax) in data set [2] (Control group: oral probe cocktail only (10 mg/kg; tolbutamide 1 mg/kg), rats) is 2,869.22 ± 783.32 µg/L. Further, in data set [2] (setting [3]), the AUC(0-t) stood at 6320 ng·h/mL, the “MRT(0–t)” value was 1.46 ± 0.22 h, the time to peak (Tmax) came out at 0.75 ± 0.27 h and the t1/2z was 0.55 ± 0.15 h. In data set [2] (setting [3]), this compound had a half-life of 0.8 ± 0.12 h. This compound also registered a mean residence time MRT last in data set [2] (male, Sprague-Dawley, rat, in vivo, po, 10 mg/kg, MRT(0–t)) of 1.41 ± 0.13 h. This compound showed an MRT inf in data set [2] (male, Sprague-Dawley, rat, in vivo, po, 10 mg/kg, MRT(0–∞)) of 1.46 ± 0.15 h. Also, in data set [2] (male, Sprague-Dawley, rat, in vivo, po, 10 mg/kg, Tmax), the Tmax worked out at 0.54 ± 0.25 h. The AUC(0-t) in data set [2] (male, Sprague-Dawley, rat, plasma, po, 10 mg/kg) was 2770 ng·h/mL. Also, in data set [2] (setting [4]), the apparent clearance CL/F was 30.7 mL/min/kg and the Vd/F is 1.57 ± 0.9 L/kg. In data set [2] (setting [5]), the CL/F is 66.5 mL/min/kg and the Vd/F was 4.77 ± 2.26 L/kg. Further, the maximum concentration (Cmax) in data set [2] (male, Sprague-Dawley, rat, plasma, po, 10 mg/kg, Cmax, Treated group: oral probe cocktail (10 mg/kg; tolbutamide 1 mg/kg) after 7 days oral poziotinib 5 mg/kg, rats) is 1490 ng/mL. For the same compound, in data set [2] (setting [6]), the “AUC (0–t) reduced by, treated vs control group” value is given as 56.08%; the “AUC (0–∞) reduced by, treated vs control group” value is listed as 55.81%; the “CLz/F increased by, treated vs control group” value is on record as 116.85%; the “Cmax reduced by, treated vs control group” value is on record as 48.06%. Besides, in data set [2] (setting [6]), the “Vz/F increased by, treated vs control group” value was found to be 203.82% and the “t1/2 increased by, treated vs control group” value is 45.45%.

Consider `CCCCNC(=O)NS(=O)(=O)c1ccc(C)cc1` [Tolbutamide], for which, in data set [2] (setting [7]), the time to peak (Tmax) is 2.67 ± 0.52 h, the t1/2z is 9.10 ± 4.20 h and the half-life is 12.7 ± 4.84 h. The Tmax in data set [2] (male, Sprague-Dawley, rat, in vivo, po, Tmax) came out at 2.33 ± 0.52 h. In data set [2] (setting [8]), the CL/F was 0.333 mL/min/kg and the Vd/F was found to be 0.27 ± 0.04 L/kg. Besides, the Cmax in data set [2] (male, Sprague-Dawley, rat, plasma, po, Cmax, Control group: oral probe cocktail only (10 mg/kg; tolbutamide 1 mg/kg), rats) turned out to be 3700 ng/mL. Besides, in data set [2] (male, Sprague-Dawley, rat, plasma, po, Cmax, Treated group: oral probe cocktail (10 mg/kg; tolbutamide 1 mg/kg) after 7 days oral poziotinib 5 mg/kg, rats), the Cmax came out at 4920 ng/mL. In addition, the Vd/F in data set [2] (male, Sprague-Dawley, rat, plasma, po, Treated group: oral probe cocktail (10 mg/kg; tolbutamide 1 mg/kg) after 7 days oral poziotinib 5 mg/kg, rats) amounted to 0.25 ± 0.1 L/kg. In addition, in data set [2] (setting [6]), the “AUC (0–∞) increasing by, treated vs control group” value is recorded as 51.60% and the “CLz/F lower than control group by” value stood at 50%. In data set [2] (setting [9]), the “AUC(0–t) of treated group as fold of control group value” is listed as 1.43 fold and the “CLz/F of treated group as fold of control group value” worked out at 0.5 fold.

For the compound `COc1cc2ncnc(Nc3ccc(F)c(Cl)c3)c2cc1NC(=O)/C=C/CN1CCCCC1` [dacomitinib], in the data set on CYP2D6 (ref Shirley, 2018), the “effect on CY2D6” value was “potent inhibitor”.

One may read the Cmax as the maximum level reached in the sampled fluid or tissue. As usually defined, the AUC(0-t) is the area under the concentration-time curve up to a stated or last time point. Broadly, the Tmax is the time at which the peak concentration occurs. As usually defined, the MRT last is a mean duration of stay, worked out from the concentration-time curve. By MRT inf is commonly meant a mean duration of stay, worked out from the concentration-time curve. A word on the half-life: it is the time needed for the level to fall by half in the phase considered. A lower half-life goes with fast loss. The CL/F is clearance divided by bioavailability, as obtained after extravascular dosing. As a reminder, the Vd/F is the volume of distribution divided by bioavailability.
